Assay: Spreadability study (125 g load on 2 g product between two petri plates)
Format: physicochemical
Conditions: 15 minutes after 125 g load on 2 g of product
Experimental: Spreadability studies were also performed for the formulations described in Table 4. Spreadability studies were conducted by applying a 125 g weight load on 2 g of product placed between two petri plates. The weight was placed on the petri plate over the product and the mean diameter of spreading was monitored over 1, 5, and 15 minutes. Based upon the mean spread diameter, the spread area was calculated. See, e.g., De Paula et al., Drug Dev Ind Pharm 24(3): 235-241 (1998). The results for spreadability are indicated in Table 5 for spread area at 15 minutes after the 125 g load was applied.

OCC(O)CO [Glycerin]
% Spread as compared to estimated human vaginal surface area (87.5 cm^2): 80.2% | Spread Area (cm^2): 70.2 cm^2

O [Water]
% Spread as compared to estimated human vaginal surface area (87.5 cm^2): 89.4% | Spread Area (cm^2): 78.2 cm^2
